The source of these data is patent US10752593B2, “Compounds for use as therapeutically active substances in the treatment of retinal diseases” (ENDOGENA THERAPEUTICS, INC., priority 2018, dated 2020).

This experiment deals with retinal precursor cells. The experiment in a line: Sphere passaging and high-throughput drug screening: proliferation of retinal precursor cells within one week. The following applies: for increase of cell proliferation within one week: increase over control, retinal precursor cells; for Cell proliferation within one week [%]: retinal precursor cells grown one week with compound in 0.1% DMSO, control without compound = 100. Type of experiment: cell-based, mammalian. The method, then: Kynurenic Acid (0.2 mg/mL), trypsin (1.33 mg/mL), and hyaluronidase (0.67 mg/mL) were weighed out and dissolved in high magnesium/low calcium artificial cerebral spinal fluid (aCSF) at 37° C. Fibroblast growth factor 2 (FGF2; 10 ng/mL) and heparin (2 μg/mL) were added to 100 mL of serum-free media (SFM). Ovomucoid trypsin inhibitor (1 mg/mL) was dissolved in warm SFM and sterile filtered ([…]).
A dissecting microscope, cold light source, and sterile surgical instruments were set up inside of a sterile biological safety cabinet (BSC). Mammalian eyes were enucleated and placed in a petri dish containing cold, sterile aCSF. Under the dissecting microscope, hair, connective tissue, and the dorsal and ventral oblique muscles were cleared from the scleral/corneal border with two sets of forceps. Next, curved or angled micro-dissecting scissors were used to cleave any remaining extraocular muscle tissue, the optic nerve, and cut the eyeball into symmetrical halves; beginning and finishing the cut from the hole left by the optic nerve. Using two sets of forceps to grasp the cornea, the two eye halves were peeled apart. The lens, optic nerve, and vitreous were separated from the eye shells and the eye shells were transferred into a new petri dish (also containing cold, sterile aCSF). To isolate the ciliary epithelium (CE), eye shells were oriented with the cornea on the right and retinal pigmented epithelium (RPE) on the left. A pair of straight forceps were used to pin down the eye shell on the RPE side while a scalpel blade was inserted between the CE and the iris, using pressure to slice the iris/cornea side off from the rest of the shell. Next, the scalpel was run along the border between the CE and the RPE to obtain the CE isolated as a thin strip of tissue. The CE strips were then transferred to a 35 mm dish containing 2 mL of dispase solution (Sigma; T1005) and incubated for 10 minutes at 37° C. Next, the strips were transferred from dispase into a 35 mm dish containing 2 mL of sterile filtered kynurenic acid, trypsin and hyaluronidase solution and incubated at 37° C. for 10 minutes. After incubation, the dish was returned to the dissecting scope, and the CE strips were pinned down with straight, non-serrated forceps, while non-serrated curved forceps were used to scrape the CE off from the underlying sclera. The bare scleral strips were then discarded, such that only the CE cells remained in the enzyme solution. Using a fire-polished, cotton-plugged glass pipette, the cells and enzyme solution were transferred to a 15 mL tube and triturated approximately 45 times to break apart the tissue. The 15 mL tube/cell suspension was centrifuged for 5 minutes at 1500 rpm. The supernatant was gently aspirated from the resulting pellet using a fire-polished, cotton-plugged glass pipette and 2 mL of trypsin inhibitor solution was added to the pellet. Using a small borehole, fire-polished, cotton-plugged glass pipette, the sample was triturated approximately 45 times until it was a single-cell suspension. The 15 mL tube/cell suspension was centrifuged for 5 minutes at 1500 rpm. The supernatant was gently aspirated from the resulting pellet and 1-2 mL of SFM with FGF2 and heparin (plating media) was added. The cells and media were mixed to ensure a uniform cell suspension and a 10 uL sample was taken and cell density was determined. The cells were then seeded and cultured at 10c/μL in culture-treated plates or flasks. After one week, roughly 1 in 500 cells proliferated to form free-floating, clonal spheres greater than 80 μm in diameter.
Human-derived spheres were passaged using the kynurenic acid, trypsin, hyaluronidase enzyme solution with the addition of collagenase I (0.5 mg/mL), collagenase II (0.5 mg/mL) and elastase (0.1 mg/mL). Mouse-derived spheres were passaged using hyaluronidase (0.67 mg/mL), collagenase I (0.5 mg/mL), and collagenase II (0.5 mg/mL) dissolved in Accustase solution (Sigma; SCR005). […]

Where [1] appears, read: results table after the methods.

Structures are written as SMILES.

As to `O=C(Cc1ccccc1Cl)Nc1ccc(-c2cnco2)c(Cl)c1` [Compound E1022, N-(3-chloro-4-(oxazol-5-yl)phenyl)-2-(2-chlorophenyl)acetamide], the “increase of cell proliferation within one week” value (shortened to “increase”) was found to be 58%. Under setting [1], the “Cell proliferation within one week [%]” value is listed as 158%. Besides, where the note is “concentration not given”, the “Cell proliferation within one week [%]” value turned out to be 158%.

In the case of `O=C(Cc1cc(F)ccc1Cl)Nc1ccc(-c2cnco2)c(F)c1` [Compound E1030, 2-(2-chloro-5-fluorophenyl)-N-(3-fluoro-4-(oxazol-5-yl)phenyl)acetamide], the “Cell proliferation within one week [%]” value under setting [1] is 133% and the “Cell proliferation within one week [%]” value (concentration not given) is 133%. With `O=C(Cc1ccccc1)Nc1ccc(-c2cnco2)c(F)c1` [Compound E1031, N-(3-fluoro-4-(oxazol-5-yl)phenyl)-2-phenylacetamide], the “Cell proliferation within one week [%]” value turned out to be 123% under setting [1] and 123% (concentration not given).

Take `COc1cccc(CC(=O)Nc2ccc(-c3cnco3)c(F)c2)c1` [Compound E1042, N-(3-fluoro-4-(oxazol-5-yl)phenyl)-2-(3-methoxyphenyl)acetamide]: the “Cell proliferation within one week [%]” value runs as follows: under setting [1], 127%; (concentration not given) 127%.

As to `COc1cccc(CC(=O)Nc2ccc(-c3cnco3)c(Cl)c2)c1` [Compound E0146, N-(3-chloro-4-(oxazol-5-yl)phenyl)-2-(3-methoxyphenyl)acetamide], the “increase” value is reported as 103%. Under setting [1], the “Cell proliferation within one week [%]” value worked out at 203%. Besides, under “concentration not given”, the “Cell proliferation within one week [%]” value stood at 203%.

For the compound `COc1ccccc1CC(=O)Nc1ccc(-c2cnco2)c(Cl)c1` [Compound E1024, N-(3-chloro-4-(oxazol-5-yl)phenyl)-2-(2-methoxyphenyl)acetamide], the “Cell proliferation within one week [%]” value was found to be 128% under setting [1] and 128% (concentration not given). `COc1cccc(CC(=O)Nc2ccc(-c3ccncc3)cc2)c1` [Compound E1078, 2-(3-methoxyphenyl)-N-(4-(pyridin-4-yl)phenyl)acetamide]: the “Cell proliferation within one week [%]” value under setting [1] is on record as 136%. With `COc1cc(NC(=O)Cc2cc(F)ccc2Cl)ccc1-c1ccncc1` [Compound E1062, 2-(2-chloro-5-fluorophenyl)-N-(3-methoxy-4-(pyridin-4-yl)phenyl)acetamide], under setting [1], the “Cell proliferation within one week [%]” value came to 134%. Take `O=C(Cc1cccc(Br)c1)Nc1ccc(-c2cnco2)c(Cl)c1` [Compound E0148, 2-(3-bromophenyl)-N-(3-chloro-4-(oxazol-5-yl)phenyl)acetamide]: the “increase” value worked out at 43%. The “Cell proliferation within one week [%]” value under setting [1] is given as 143%. Besides, where the note is “concentration not given”, the “Cell proliferation within one week [%]” value was determined as 143%.

Take `O=C(Cc1cc(F)ccc1Cl)Nc1ccc(-c2cnco2)c(Cl)c1` [Compound E1017, N-(3-chloro-4-(oxazol-5-yl)phenyl)-2-(2-chloro-5-fluorophenyl)acetamide]: the “Cell proliferation within one week [%]” value is, setting by setting: under setting [1], 121%; (concentration not given) 121%.

For the compound `O=C(Cc1ccccc1OC(F)F)Nc1ccc(-c2cnco2)c(F)c1` [Compound E1028, 2-(2-(difluoromethoxy)phenyl)-N-(3-fluoro-4-(oxazol-5-yl)phenyl)acetamide], the “Cell proliferation within one week [%]” value under setting [1] was found to be 119% and the “Cell proliferation within one week [%]” value (concentration not given) was 119%. Regarding `O=C(Cc1ccc(Cl)cc1)Nc1ccc(-c2cnco2)c(F)c1` [Compound E1039, 2-(4-chlorophenyl)-N-(3-fluoro-4-(oxazol-5-yl)phenyl)acetamide], the “Cell proliferation within one week [%]” value is, setting by setting: under setting [1], 107%; (concentration not given) 107%. As to `COc1cc(NC(=O)Cc2cccc(C(F)(F)F)c2)ccc1-c1ccncc1` [Compound E1070, N-(3-methoxy-4-(pyridin-4-yl)phenyl)-2-(3-(trifluoromethyl)phenyl)acetamide], the “Cell proliferation within one week [%]” value under setting [1] is recorded as 106%. With `COc1cc(NC(=O)Cc2ccccc2)ccc1-c1ccncc1` [Compound E1063, N-(3-methoxy-4-(pyridin-4-yl)phenyl)-2-phenylacetamide], the “Cell proliferation within one week [%]” value under setting [1] is reported as 130%. For `O=C(Cc1ccccc1Cl)Nc1ccc(-c2ccncc2)cc1` [Compound E1060, 2-(2-chlorophenyl)-N-(4-(pyridin-4-yl)phenyl)acetamide], the “increase” value is recorded as 44%. Besides, the “Cell proliferation within one week [%]” value under setting [1] was found to be 144%.

As for `COc1cccc(CC(=O)Nc2ccc(-c3ccncc3)c(OC)c2)c1` [Compound E1072, N-(3-methoxy-4-(pyridin-4-yl)phenyl)-2-(3-methoxyphenyl)acetamide], the “increase” value came to 40%. Under setting [1], the “Cell proliferation within one week [%]” value is reported as 140%. In the case of `COc1cc(NC(=O)Cc2ccccc2OC(F)F)ccc1-c1ccncc1` [Compound E1073], the “Cell proliferation within one week [%]” value under setting [1] was 121%. On to `O=C(Cc1cccc(C(F)(F)F)c1)Nc1ccc(-c2cnco2)c(F)c1` [Compound E1048, N-(3-fluoro-4-(oxazol-5-yl)phenyl)-2-(3-(trifluoromethyl)phenyl)acetamide], for which the “Cell proliferation within one week [%]” value amounted to 105% under setting [1] and 105% (concentration not given). For the compound `O=C(Cc1ccccc1C(F)(F)F)Nc1ccc(-c2cnco2)c(F)c1` [Compound E1051, N-(3-fluoro-4-(oxazol-5-yl)phenyl)-2-(2-(trifluoromethyl)phenyl)acetamide], the “Cell proliferation within one week [%]” value is, setting by setting: under setting [1], 118%; (concentration not given) 118%. Regarding `O=C(Cc1ccccc1Cl)Nc1ccc(-c2cnco2)c(F)c1` [Compound E1032, 2-(2-chlorophenyl)-N-(3-fluoro-4-(oxazol-5-yl)phenyl)acetamide], the “Cell proliferation within one week [%]” value reads like this: under setting [1], 137%; (concentration not given) 137%. As for `O=C(Cc1cccc(OC(F)F)c1)Nc1ccc(-c2cnco2)c(Cl)c1` [Compound E1026, N-(3-chloro-4-(oxazol-5-yl)phenyl)-2-(3-(difluoromethoxy)phenyl)acetamide], the “Cell proliferation within one week [%]” value under setting [1] was found to be 122% and the “Cell proliferation within one week [%]” value (concentration not given) was found to be 122%. As to `O=C(Cc1ccccc1)Nc1ccc(-c2cnco2)c(Cl)c1` [Compound E1021, N-(3-chloro-4-(oxazol-5-yl)phenyl)-2-phenylacetamide], the “increase” value is on record as 49%. The “Cell proliferation within one week [%]” value under setting [1] is recorded as 149%. The “Cell proliferation within one week [%]” value (concentration not given) is listed as 149%. For `O=C(Cc1ccccc1C(F)(F)F)Nc1ccc(-c2cnco2)c(Cl)c1` [Compound E0147, N-(3-chloro-4-(oxazol-5-yl)phenyl)-2-(2-(trifluoromethyl)phenyl)acetamide], the “increase” value stood at 42%. The “Cell proliferation within one week [%]” value under setting [1] came to 142%. In addition, the “Cell proliferation within one week [%]” value (concentration not given) stood at 142%. As for `COc1cc(NC(=O)Cc2ccc(F)cc2F)ccc1-c1ccncc1` [Compound E1069, 2-(2,4-difluorophenyl)-N-(3-methoxy-4-(pyridin-4-yl)phenyl) acetamide], the “Cell proliferation within one week [%]” value under setting [1] came to 106%. `COc1cc(NC(=O)Cc2ccccc2Cl)ccc1-c1ccncc1` [Compound E0027, 2-(2-chlorophenyl)-N-(3-methoxy-4-(pyridin-4-yl)phenyl)acetamide]: the “increase” value came out at 48%. Also, the “Cell proliferation within one week [%]” value under setting [1] is listed as 148%. In the case of `O=C(Cc1ccc(F)cc1F)Nc1ccc(-c2cnco2)c(F)c1` [Compound E1045, 2-(2,4-difluorophenyl)-N-(3-fluoro-4-(oxazol-5-yl)phenyl)acetamide], the “Cell proliferation within one week [%]” value is, setting by setting: under setting [1], 140%; (concentration not given) 140%.

Regarding `COc1cc(NC(=O)Cc2ccccc2C(F)(F)F)ccc1-c1ccncc1` [Compound E1071, N-(3-methoxy-4-(pyridin-4-yl)phenyl)-2-(2-(trifluoromethyl)phenyl)acetamide], under setting [1], the “Cell proliferation within one week [%]” value is reported as 113%.
